Measurements taken from ChEMBL document CHEMBL5500370, “Discovery of potent and novel dual NAMPT/BRD4 inhibitors for efficient treatment of hepatocellular carcinoma” (Eur J Med Chem, 2024).
Activity calls are given as the source filed them. No cut-off for these calls is given here.

Key:
[1] = molecular target: T1, Bromodomain-containing protein 4 (Homo sapiens, UniProt O60885); assay: Inhibition of BRD4 in human Hep3B cells assessed as decrease in c-Myc level at 1 to 10 uM measured after 72 hrs by immunoblot analysis; assay type: cell-based; conditions: dose 1-10 µM
[2] = test system: Hep 3B2; assay: Antimigratory activity in human Hep3B cells measured upto 24 hrs by transwell assay; assay type: functional, cell-based; conditions: dose 1-10 µM
[3] = test system: Hep 3B2; assay: Induction of apoptosis in human Hep3B cells assessed as necrotic cells at 10 uM measured after 72 hrs by Annexin V-FITC/PI staining based flow cytometry (reference value: 2.74 %); assay type: functional
[4] = molecular target: Bromodomain-containing protein 2 (Homo sapiens, UniProt P25440); assay: Inhibition of BRD2 BD1/2 (unknown origin) incubated for 120 mins by TR-FRET assay
[5] = test system: HCCLM3; assay: Antiproliferative activity against NMN/NAMN-treated human HCCLM3 cells incubated for 120 hrs by MTT assay; assay type: functional, cell-based
[6] = test system: Hep 3B2; assay: Downregulation of NAPRT level in human Hep3B cells at 1 to 10 uM measured after 72 hrs by immunoblot analysis; assay type: functional, cell-based; conditions: dose 1-10 µM
[7] = molecular target: T1, Bromodomain-containing protein 4; assay: Inhibition of BRD4 BD1 (unknown origin) incubated for 120 mins by TR-FRET assay
[8] = molecular target: Nicotinamide phosphoribosyltransferase (Homo sapiens, UniProt P43490); assay: Inhibition of recombinant NAMPT (unknown origin) by fluorescence based assay
[9] = test system: Hep 3B2; assay: Induction of cell cycle arrest at G0/G1 phase in human Hep3B cells at 5 uM measured after 72 hrs by PI/RNase staining based flow cytometry (reference value: 56.73 %); assay type: functional
[10] = test system: Hep 3B2; assay: Induction of cell cycle arrest at G2/M phase in human Hep3B cells at 10 uM measured after 72 hrs by PI/RNase staining based flow cytometry (reference value: 11.37 %); assay type: functional
[11] = test system: Hep 3B2; assay: Induction of apoptosis in human Hep3B cells assessed as early apoptotic cells at 5 uM measured after 72 hrs by Annexin V-FITC/PI staining based flow cytometry (reference value: 2.13 %); assay type: functional
[12] = test system: Hep 3B2; assay: Induction of apoptosis in human Hep3B cells assessed as early apoptotic cells at 1 uM measured after 72 hrs by Annexin V-FITC/PI staining based flow cytometry (reference value: 2.13 %); assay type: functional
[13] = test system: Hep 3B2; assay: Induction of cell cycle arrest at G2/M phase in human Hep3B cells at 1 uM measured after 72 hrs by PI/RNase staining based flow cytometry (reference value: 11.37 %); assay type: functional

Chain of Nicotinamide phosphoribosyltransferase (P43490 whole entry): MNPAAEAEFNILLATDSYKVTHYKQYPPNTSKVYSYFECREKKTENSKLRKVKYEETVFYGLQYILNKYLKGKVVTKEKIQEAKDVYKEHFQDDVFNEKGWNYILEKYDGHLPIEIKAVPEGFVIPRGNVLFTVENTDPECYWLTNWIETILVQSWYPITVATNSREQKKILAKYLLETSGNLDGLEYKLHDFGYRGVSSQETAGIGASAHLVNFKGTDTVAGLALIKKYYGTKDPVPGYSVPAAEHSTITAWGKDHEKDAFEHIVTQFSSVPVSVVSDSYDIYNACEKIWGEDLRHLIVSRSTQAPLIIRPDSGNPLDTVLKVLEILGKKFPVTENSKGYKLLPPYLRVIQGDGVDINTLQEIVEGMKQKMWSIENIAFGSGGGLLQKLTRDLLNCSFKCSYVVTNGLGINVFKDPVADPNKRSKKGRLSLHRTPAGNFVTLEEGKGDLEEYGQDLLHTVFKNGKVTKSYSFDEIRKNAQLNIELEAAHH
Chain of Bromodomain-containing protein 2 (P25440 whole entry): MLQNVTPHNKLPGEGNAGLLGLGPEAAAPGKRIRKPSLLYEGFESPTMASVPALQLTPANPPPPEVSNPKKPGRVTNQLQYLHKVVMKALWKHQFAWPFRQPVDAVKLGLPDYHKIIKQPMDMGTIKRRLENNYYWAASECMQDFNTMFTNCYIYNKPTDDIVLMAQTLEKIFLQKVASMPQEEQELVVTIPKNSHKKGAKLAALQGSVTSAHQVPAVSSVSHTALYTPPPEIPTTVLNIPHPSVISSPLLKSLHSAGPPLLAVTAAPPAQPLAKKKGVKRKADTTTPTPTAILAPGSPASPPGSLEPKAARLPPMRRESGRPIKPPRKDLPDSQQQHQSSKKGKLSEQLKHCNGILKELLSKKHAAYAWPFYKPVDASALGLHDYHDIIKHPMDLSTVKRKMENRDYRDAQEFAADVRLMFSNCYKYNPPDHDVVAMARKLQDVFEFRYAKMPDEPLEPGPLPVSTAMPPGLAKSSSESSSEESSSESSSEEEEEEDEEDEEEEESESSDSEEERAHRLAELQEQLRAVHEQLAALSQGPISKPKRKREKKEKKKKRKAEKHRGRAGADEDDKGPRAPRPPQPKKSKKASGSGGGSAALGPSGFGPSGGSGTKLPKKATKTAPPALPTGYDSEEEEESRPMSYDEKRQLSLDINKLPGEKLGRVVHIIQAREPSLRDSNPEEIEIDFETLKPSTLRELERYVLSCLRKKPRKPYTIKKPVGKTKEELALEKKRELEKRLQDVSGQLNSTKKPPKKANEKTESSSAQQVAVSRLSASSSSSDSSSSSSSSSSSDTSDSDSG

Compound: Cc1sc2c(c1C)C(c1ccc(Cl)cc1)=N[C@@H](CC(=O)NCCCNC(=O)/C=C/c1cccnc1)c1nnc(C)n1-2
- inhibition [1]: Active
- Activity [2]: Dose-Dependent Effect
- Activity [3]: 2.43%
- IC50 [4]: 489 nM
- Activity [5]: inactive
- Activity [6]: Active
- IC50 [7]: 12 nM
- IC50 [8]: 35 nM
- Activity [9]: 71.08%
- Activity [10]: 5.54%
- Activity [11]: 14.49%
- Activity [12]: 8.83%
- Activity [13]: 9.76%
